Assays:
NCI-N87 = conditions: read-out: In vitro potency (EC50 in pM); NCI-N87, 3 to 4 days
Description: A panel of human cancer cell lines expressing various levels of HER2 was used to evaluate the cytotoxic activity of bispecific ADC (Table 5 in Example 1). Briefly, cells were harvested, resuspended, and plated in serum-containing culture media at a density of 5,000 to 20,000 per well (depending on the growth kinetics of each cell line) of 96-well plates in a volume of 100 μL. A 2× concentration of each dose of antibody or ADC to be tested was prepared by diluting the test articles in culture medium. One hundred microliters of each test article was added to cells in triplicate such that the final dose curve ranged from 5 nM down to 0.08 pM in a stepwise 1:4 serial dilution series. The treated cells were incubated at 37° C./5% CO2 for 3 to 4 days, depending on the growth kinetics of each particular cell line. Cell viability was determined using Cell Titer Glo according to manufacturer's instructions. Data are analyzed by the GraphPad Prism software and presented as percent growth inhibition relative to the untreated control. EC50 values were determined using Sigmoidal non-linear regression analysis with GraphPad Prism software and were summarized in Table 6.

MDA-MB-361 = assay: In vitro cytotoxic activity (Cell Titer Glo); type: cell-based, human; conditions: MDA-MB-361, 3 to 4 days; read-out: In vitro potency (EC50 in pM)
MDA-MB-468 = assay: In vitro cytotoxic activity (Cell Titer Glo); type: cell-based, human; conditions: MDA-MB-468, 3 to 4 days
MDA-MB-361 cells = type: cell-based, human; conditions: MDA-MB-361, 10 pM, relative to untreated control
Description: MDA-MB-361 cells were cultured under standard tissue culture conditions in Leibovitz's L-15 medium supplemented with 20% FBS. Cells were harvested by trypsinization, washed twice with PBS, and resuspended to 30,000 cells per mL in stem cell medium (SCM: DMEM/F12 supplemented with 20 ng/mL EGF, 10 ng/mL bFGF, 5 mg/mL insulin, 0.4% BSA and 1% knock-out serum replacement). […] At the end of treatment, the primary spheres were harvested, dissociated using 0.05% trypsin and resuspended at a density of 30,000 cells/mL in SCM containing the same antibody treatment as the primary sphere culture. Cells were then plated in triplicate into 96-well ultra-low attachment plates and incubated for 4 days. Sphere cell viability was determined using Cell Titer Glo according to manufacturer's instructions. Data are presented as fold of CSC sphere formation relative to the untreated control.

[1] = target: T1, HER2:HER3 heterodimerization (Homo sapiens, UniProt P04626); assay: Disruption of HER2:HER3 heterodimerization (IP/Western, T47D cells); type: cell-based; conditions: 500 nM antibody, heregulin-b1 8 ng/mL
T1 construct: endogenous in cells; host or cells: T47D
Description: Cells were seeded at a density of 1×10^6 cells/well in a 6-well plate and then incubated overnight at 37° C./5% CO2. […] After pre-treatment, heregulin-β1 was added at a final concentration of 8 ng/mL and cells were incubated for 5 min at 37° C./5% CO2. Cells were then washed twice with ice-cold 1×PBS, lysed and immune-precipitated using mouse anti-human HER2 (clone 44E7) antibody and the Pierce Classic IP Kit from Thermo Scientific according to manufacturer's instructions. Immune-precipitated protein samples were eluted in Laemmli buffer containing 2-mecaptoethanol and analyzed by Western blot using standard protocol. Rabbit anti-human HER2 (clone 29D8) antibody was used to detect HER2 and rabbit anti-human HER3 (C-17) polyclonal antibody was used to detect HER3 in the Western blot analysis.

Molecule: T-DM1 [reference compound]
- EC50 (NCI-N87): 275 pM
- EC50 (MDA-MB-361): 266 pM
- In vitro potency (EC50 in pM) (MDA-MB-468): Inactive
- inhibition of CSC sphere formation (MDA-MB-361 cells): no activity

B1: 39S: lead optimized monoclonal antibody derived from the 1.39.1 antibody; VH SEQ ID NO:15, VL SEQ ID NO:16 (antibody, V domains shown)
VH: EVQLVESGGGLVKPGGSLRLSCAASGFTFSSYSMSWVRQAPGKGLEWVSSISSSSSYIYYADSVKGRFTISRDNAKNSLYLQMNSLRAEDTAVYYCARGGDAYNYYYFDYWGQGTLVTVSS
VL: DIVMTQTPLSLSVTPGQPASISCKSSQSVFFRSNNKNILAWYLQKPGQPPQLLIYWASSRESGVPDRFSGSGSGTDFTLKISRVEAEDVGVYYCQQYFGSPFTFGPGTKVDIK
- disruption of HER2:HER3 heterodimerization induced by ligand stimulation [1]: can disrupt

Reference: patent publication US10160812B2, “Bispecific HER2 antibodies” (MedImmune, LLC, priority 2014, dated 2018)
